Measured values taken from BindingDB's records for doi:10.1016/j.bmcl.2021.128001 (The First Affiliated Hospital of Anhui Medical University, 2021).

These compounds were tested against T1, Peptidase (Staphylococcus aureus, UniProt Q7DHH4) (assay: Binding affinity to Staphylococcus aureus PBP2a assessed as dissociation constant by SPR assay).
T1 sequence (Q7DHH4 whole entry): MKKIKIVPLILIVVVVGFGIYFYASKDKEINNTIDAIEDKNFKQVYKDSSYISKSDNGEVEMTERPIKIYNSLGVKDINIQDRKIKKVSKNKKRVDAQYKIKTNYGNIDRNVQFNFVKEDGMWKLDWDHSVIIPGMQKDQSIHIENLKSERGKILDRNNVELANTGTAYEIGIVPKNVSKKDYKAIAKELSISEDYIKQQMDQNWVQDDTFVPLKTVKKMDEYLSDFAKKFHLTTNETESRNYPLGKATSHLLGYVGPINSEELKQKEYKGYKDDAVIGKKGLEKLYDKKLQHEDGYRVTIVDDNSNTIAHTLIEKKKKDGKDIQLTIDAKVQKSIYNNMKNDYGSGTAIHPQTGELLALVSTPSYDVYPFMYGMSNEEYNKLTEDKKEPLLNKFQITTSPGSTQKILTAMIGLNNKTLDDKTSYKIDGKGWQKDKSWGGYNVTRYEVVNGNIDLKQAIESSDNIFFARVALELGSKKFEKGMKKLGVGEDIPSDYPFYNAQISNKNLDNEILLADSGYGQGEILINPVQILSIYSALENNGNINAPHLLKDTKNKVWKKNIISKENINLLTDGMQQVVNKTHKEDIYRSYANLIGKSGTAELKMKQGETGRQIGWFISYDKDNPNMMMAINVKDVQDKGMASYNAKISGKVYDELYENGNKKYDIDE
In the case of `COc1ccc(NC(=O)[C@H]2Oc3c(c(=O)oc4ccccc34)[C@@H]2c2ccc(CCCN3CCCC3=O)cc2)cc1`, the koff is reported as 0.0284 s⁻¹.
Compound `COc1cc2c(c(OC)c1OC)-c1ccc(NCC(=O)NCCc3c[nH]c4ccccc34)c(=O)cc1[C@@H](NC(C)=O)CC2` has a koff of 0.0207 s⁻¹.
In the case of `COc1ccc(-c2cc(=O)oc3c(C)c(OCC(=O)N[C@@H](Cc4c[nH]c5ccc(O)cc45)C(=O)O)ccc23)cc1`, the koff is reported as 0.0214 s⁻¹.
With `Cc1ccc(NC(=O)[C@H](Cc2c[nH]c3ccccc23)NC(=O)C2CCN(C(=O)CNC(=O)OC(C)(C)C)CC2)cc1` the koff was 0.0253 s⁻¹.
